These results are taken from patent publication US11278530B2, “Polycyclic amides as muscarinic M1 receptor positive allosteric modulators” (SUVEN LIFE SCIENCES LIMITED, priority 2017, dated 2022).

As a reminder, the EC50 is the concentration that produces a half-maximal response. By AUC(0-t) is commonly meant the area under the concentration-time curve up to a stated or last time point. A lower AUC(0-t) goes with low exposure. Broadly, the half-life is the time needed for the level to fall by half in the phase considered. Low readings indicate fast loss, high ones slow loss. The term clearance denotes the rate of elimination divided by the concentration. A word on the Cmax: it is the peak of the concentration-time curve. For orientation: Tmax means the time from dosing to the highest level.

For one data set, the system named is Male Wistar rats. The data set can be described thus: Object recognition task model. To be noted: rat, p.o.; for Exploration time mean ± S.E.M, Familiar object / Exploration time mean ± S.E.M, Novel object: choice trial 24 h after T1. In kind it is in vivo. On the procedure: Object Recognition Task Model
The cognition enhancing properties of compounds of this invention were estimated by using this model.
Male Wistar rats (8-10 weeks old) were used as experimental animals. Four animals were housed in each cage. Animals were kept on 20% food deprivation from a day prior to experimentation. Water was provided ad libitum throughout the experiment. Animals were maintained on a 12 h light/dark cycle in temperature and humidity controlled room. The experiment was carried out in circular arena made up of acrylic. Rats were habituated to individual arenas for up to 45 min in the absence of any objects on day 1.
One group of 12 rats received vehicle and another set of animals received compound of the formula (I), before the familiar (T1) and choice (T2) trials. During the familiarization phase, (T1), the rats were placed individually in the arena for 3 minutes, in which two identical objects (a1 and a2) were positioned 10 cm from the wall. 24 h after T1, trial for long-term memory test was performed. The same rats were placed in the same arena as they were placed in T1 trial. During the choice phase (T2) rats were allowed to explore the arena for 3 minutes in presence of a copy of familiar object (a3) and one novel object (b). During the T1 and T2 trial, explorations of each object (defined as sniffing, licking, chewing or having moving vibrissae whilst directing the nose towards the object at a distance of less than 1 cm) were recorded using stopwatch.
T1 is the total time spent exploring the familiar objects (a1+a2).
T2 is the total time spent exploring the familiar object and novel object (a3+b).
The object recognition test was performed as described by Ennaceur, A., Delacour, J., 1988, A new one-trial test for neurobiological studies of memory in rats—Behavioural data, Behav. Brain Res., 31, 47-59.

Data set [1] in a line: Rodent brain penetration study. In kind it is in vivo, Male Wistar rats. To be noted: male, Wistar, brain and plasma, po; rat, 3 mg/kg, p.o. @ 1.0 hr, brain-plasma ratio; read-out: Single dose Rat Brain Penetration (Cb/Cp). The protocol: Rodent Brain Penetration Study
Male Wistar rats (260±40 grams) were used as experimental animals. Three animals were housed in each cage. Animals were given water and food ad libitum throughout the experiment and maintained on a 12 h light/dark cycle.
Brain penetration was determined in discrete manner in rats. One day prior to dosing day, male Wistar rats were acclimatized and randomly grouped according to their weight. At each time point (0.5, 1 and 2 h) n=3 animals were used.
The test compounds were suitably preformulated and administered orally at (free base equivalent) 3 mg/kg. Blood samples were removed via cardiac puncture by using isoflurane anesthesia. The animals were sacrificed to collect brain tissue. Plasma was separated and brain samples were homogenized and stored frozen at −20° C. until analysis. The concentrations of the test compounds in plasma and brain were determined using LC-MS/MS method.
The test compounds were quantified in plasma and brain homogenate by qualified LC-MS/MS method using suitable extraction technique. The test compounds were quantified in the calibration range of 1-500 ng/mL in plasma and brain homogenate. Study samples were analyzed using calibration samples in the batch and quality control samples spread across the batch.

In data set [2] the target is T1, recombinant human Muscarinic M1 receptor (Homo sapiens, UniProt P11229).
T1 sequence (P11229 1-460): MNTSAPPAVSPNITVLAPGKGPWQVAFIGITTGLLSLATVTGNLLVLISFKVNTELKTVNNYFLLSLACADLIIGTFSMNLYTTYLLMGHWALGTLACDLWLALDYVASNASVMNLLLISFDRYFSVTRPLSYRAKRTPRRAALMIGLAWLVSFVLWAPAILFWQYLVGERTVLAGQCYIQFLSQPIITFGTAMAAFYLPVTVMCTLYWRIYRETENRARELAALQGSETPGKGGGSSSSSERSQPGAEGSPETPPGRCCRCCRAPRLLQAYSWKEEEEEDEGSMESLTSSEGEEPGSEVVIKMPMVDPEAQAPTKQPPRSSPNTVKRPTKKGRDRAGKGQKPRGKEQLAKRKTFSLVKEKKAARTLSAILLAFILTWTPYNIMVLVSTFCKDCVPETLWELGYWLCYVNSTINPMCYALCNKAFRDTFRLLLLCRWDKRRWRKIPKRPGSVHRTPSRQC
Briefly: Allosteric potency EC50 for Muscarinic M1 receptor, CHO pCRE-Luc reporter cell-based assay with EC20 of acetylcholine. As to conditions: CHO cells, human M1, luciferase reporter, in presence of EC20 of acetylcholine, 4 h. On the procedure:
Determination of allosteric potency EC50 values for Muscarinic M1 receptor:
A stable CHO cell line expressing recombinant human Muscarinic M1 receptor and pCRE-Luc reporter system was used for cell-based assay. The assay offers a non-radioactive based approach to determine binding of a compound to GPCRs. In this specific assay, the level of intracellular cyclic AMP which is modulated by activation or inhibition of the receptor is measured. The recombinant cells harbor luciferase reporter gene under the control of cAMP response element.
The above cells were grown in 96 well clear bottom white plates in Hams F12 medium containing 10% fetal bovine serum (FBS). Prior to the addition of compounds or standard agonist, cells were serum starved overnight. Increasing concentrations of test compounds were added along with EC20 of acetylcholine in OptiMEM medium to the cells. The incubation was continued at 37° C. in CO2 incubator for 4 h. Medium was removed and cells were washed with phosphate buffered saline. The cells were lysed and luciferase activity was measured in a Luminometer. Luminescence counts in each concentrations of test item were normalized to the acetylcholine induced maximum response and the data was analyzed using Graphpad software. EC50 values of the compounds were defined as the concentration required in stimulating the luciferase activity by 50% in presence of EC20 of acetylcholine.

Data set [3] can be described thus: Rodent pharmacokinetic study. To be noted: male, Wistar, rat, plasma; for bioavailability: oral 3 mg/kg vs i.v. 1 mg/kg, read-out: F (bioavailability). In kind it is in vivo, Male Wistar rats. On the procedure:
Rodent Pharmacokinetic Study
Male Wistar rats (260±50 grams) were used as experimental animals. Animals were housed individually in polypropylene cage. Two days prior to study, male Wistar rats were anesthetized with isoflurane for surgical placement of jugular vein catheter. Rats were randomly divided for oral (3 mg/kg) and intravenous (i.v) (1 mg/kg) dosing (n=3/group) and fasted overnight before oral dosing (p.o.). However, rats allocated to intravenous (i.v.) dosing food and water was provided ad libitum.
At pre-determined point, blood was collected through jugular vein and replenished with an equivalent volume of normal saline. Collected blood was transferred into a labelled eppendorf tube containing 10 μL of heparin as an anticoagulant. Typically blood samples were collected at following time points: 0.08, 0.25, 0.5, 1, 2, 4, 6, 8, and 24 h post dose. Blood was centrifuged at 4000 rpm for 10 minutes. Plasma was separated and stored frozen at −80° C. until analysis. The concentrations of the test compounds were quantified in plasma by qualified LC-MS/MS method using suitable extraction technique. The test compounds were quantified in the calibration range around 1-1000 ng/mL in plasma. Study samples were analyzed using calibration samples in the batch and quality control samples spread across the batch.
Pharmacokinetic parameters Cmax, Tmax (h), AUCt, T1/2, clearance and bioavailability (F) were calculated by non-compartmental model using standard non-compartmental model by using Phoenix WinNonlin 6.0.2 or 6.0.3 version Software package.

Data set [4] deals with hippocampal θ rhythm, anesthetized male Wistar rats. The data set can be described thus: Theta modulation in dorsal hippocampus of anesthetized rats in combination with donepezil. In kind it is in vivo.
From the text: Male Wistar rats (240-320 g) were anesthetized by intraperitoneal administration of urethane (1.2 to 1.5 g/kg) for implantation of a catheter in the left femoral vein. The animal was placed in a stereotaxic frame for implanting an electrode (stainless steel wire, Plastics One) into the dorsal hippocampus (AP: −3.8 mm; ML: +2.2 mm; DV: −2.5 mm; Paxinos and Watson, 2004). Bipolar stimulating electrode (untwisted stainless steel wires, separated by 0.75-1.0 mm at their tips, Plastics One) was implanted in the Nucleus Pontis Oralis (NPO; AP: −7.8 mm; ML: 1.8 mm; DV: −6.0 mm; Paxinos and Watson, 2004). Additionally one electrode was implanted into the cerebellum which served as a reference. Hippocampal θ rhythm was evoked via a 6-s electrical stimulation train (20-160 PA, 0.3-ms pulse duration, 250 Hz) delivered to the NPO at a rate of 0.01 trains/s with a Grass S88 stimulator and PSIU6 stimulus isolation unit (Grass Medical Instruments, Quincy, Mass.). EEG was recorded at a rate of 1000 Hz using Ponemah (Version 5.2) software and stored for off-line analysis using NeuroScore (Version 3.0). Baseline amplitude level was achieved by using the current required to elicit 0 rhythm to 50% of the maximal amplitude under control conditions.
Power in the θ rhythm frequency in the stimulation period during the 30 min baseline period was calculated and the % changes in these measures post treatment were calculated. […] Statistical significance was considered at a p value less than 0.05.

`Cc1c(Cc2ccc(-c3cnn(C)c3)cc2)cc(C(=O)N[C@H]2CCCC[C@@H]2O)c2ncccc12` [Example 15, N-(cis-1S,2S-2-Hydroxycyclohexyl)-6-[4-(1-methyl-1H-pyrazol-4-yl)-benzyl]-5-methylquinoline-8-carboxamide]: in the data set with Male Wistar rats (1 mg/kg), the Inference entry is given as “Active”; the “Exploration time mean ± S.E.M, Familiar object” value came out at 12.93 ± 1.83 s; the “Exploration time mean ± S.E.M, Novel object” value is 20.42 ± 3.42 s. Moreover, the Kp at 1 h in data set [1] is 0.78 ± 0.22. The EC50 in data set [2] was found to be 197 nM. Besides, in data set [3] (iv, i.v. 1 mg/kg), the AUC(0-t) amounted to 6860 ± 1810 ng·h/mL, the half-life was 3.1 ± 0.3 h and the clearance amounted to 2.5 ± 0.6 mL/min/kg. The bioavailability in data set [3] stood at 40 ± 11%. Moreover, in data set [3] (oral 3 mg/kg), the AUC(0-t) came out at 8190 ± 2180 ng·h/mL, the peak level (Cmax) was 1540 ± 397 ng/mL, the Tmax is 2 h and the half-life is 3.7 ± 0.3 h.
Regarding `Cc1c(Cc2ccc(-c3cnn(C)c3)cc2F)cc(C(=O)N[C@H]2CCCC[C@@H]2O)c2ncccc12` [Example 11, N-(cis-1S,2S-2-Hydroxycyclohexyl)-6-[2-fluoro-4-(1-methyl-1H-pyrazol-4-yl)-benzyl]-5-methylquinoline-8-carboxamide], in the data set with Male Wistar rats (0.3 mg/kg), the Inference entry was “Active”; the “Exploration time mean ± S.E.M, Familiar object” value came out at 12.20 ± 1.89 s; the “Exploration time mean ± S.E.M, Novel object” value was 17.33 ± 1.39 s. The Kp at 1 h in data set [1] came out at 0.14 ± 0.01. For the same compound, the “Mean area under the curve values (AUC) of θ power change compared with donepezil alone” value in data set [4] (Example 11 (1 mg/kg, i.v.) and donepezil (0.3 mg/kg, i.v.) vs donepezil alone) is recorded as “significantly higher compared to donepezil alone”. Besides, the “effect on θ power of combination treatment compared with donepezil alone” value in data set [4] (Example 11 (1 mg/kg, i.v.) in combination with donepezil (0.3 mg/kg, i.v.) vs donepezil alone) is “significantly higher than the donepezil alone”. In data set [4] (Example 11 (1 mg/kg, i.v.) in combination with donepezil (0.3 mg/kg, i.v.), anesthetized rat), the θ power levels entry is given as “significant increase”. The EC50 in data set [2] was 100 nM. For the same compound, in data set [3] (iv, i.v. 1 mg/kg), the AUC(0-t) came out at 12800 ± 2150 ng·h/mL, the half-life is 3.9 ± 0.2 h and the clearance worked out at 1.3 ± 0.2 mL/min/kg. The bioavailability in data set [3] stood at 105 ± 25%. Moreover, in data set [3] (oral 3 mg/kg), the AUC(0-t) amounted to 40300 ± 9420 ng·h/mL, the Cmax stood at 9690 ± 1420 ng/mL, the Tmax lay within 1 to 2 h and the half-life is 4.8 ± 1.6 h.
As for `Cc1c(Cc2cccc(F)c2F)cc(C(=O)N[C@H]2CCCC[C@@H]2O)c2ncccc12` [Example 2, N-(cis-1S,2S-2-Hydroxycyclohexyl)-6-(2,3-difluorobenzyl)-5-methylquinoline-8-carboxamide], the Kp at 1 h in data set [1] turned out to be 1.74 ± 0.03. Moreover, the EC50 in data set [2] is 1680 nM. Moreover, in data set [3] (iv, i.v. 1 mg/kg), the AUC(0-t) turned out to be 367 ± 39 ng·h/mL, the half-life was 1.6 ± 0.3 h and the clearance is 45 ± 5 mL/min/kg. Also, the bioavailability in data set [3] came out at 14 ± 5%. For the same compound, in data set [3] (oral 3 mg/kg), the AUC(0-t) was 158 ± 58 ng·h/mL, the Cmax turned out to be 48 ± 23 ng/mL, the Tmax lay within 0.5 to 2 h and the half-life was 2 ± 0.2 h.
Consider `Cc1c(Cc2ccccc2)cc(C(=O)N[C@H]2CCCC[C@@H]2O)c2ncccc12` [Example 14, N-(cis-1S,2S-2-Hydroxycyclohexyl)-6-benzyl-5-methylquinoline-8-carboxamide], for which, in the data set on Male Wistar rats (3 mg/kg), the Inference entry is given as “Active”; the “Exploration time mean ± S.E.M, Familiar object” value amounted to 8.35 ± 1.98 s; the “Exploration time mean ± S.E.M, Novel object” value stood at 15.54 ± 3.58 s. Moreover, in data set [1], the Kp at 1 h turned out to be 1.27 ± 0.07. Also, the EC50 in data set [2] amounted to 555 nM. For the same compound, in data set [3] (iv, i.v. 1 mg/kg), the AUC(0-t) was determined as 346 ± 25 ng·h/mL, the half-life was 0.8 ± 0.1 h and the clearance was 48 ± 3.4 mL/min/kg. In addition, in data set [3], the bioavailability came out at 13 ± 2.7%. Moreover, in data set [3] (oral 3 mg/kg), the AUC(0-t) was determined as 137 ± 28 ng·h/mL, the highest level (Cmax) was 70 ± 23 ng/mL, the Tmax is 0.5 h and the half-life is 1.9 ± 0.1 h.
